Assay results as given in ChEMBL document CHEMBL1144455, “A small molecule-kinase interaction map for clinical kinase inhibitors” (Nat Biotechnol, 2005).

Assays:
[1] = target: Tyrosine-protein kinase Yes (Homo sapiens, UniProt P07947)
[2] = target: Tyrosine-protein kinase Fgr (Homo sapiens, UniProt P09769)
[3] = target: Calcium/calmodulin-dependent protein kinase kinase 1 (Homo sapiens, UniProt Q8N5S9)
Ephrin type-A receptor 7 = Ephrin type-A receptor 7 (Homo sapiens, UniProt Q15375)
Ephrin type-A receptor 4 = Ephrin type-A receptor 4 (Homo sapiens, UniProt P54764)
Ephrin type-A receptor 4, sequence (P54764 whole entry): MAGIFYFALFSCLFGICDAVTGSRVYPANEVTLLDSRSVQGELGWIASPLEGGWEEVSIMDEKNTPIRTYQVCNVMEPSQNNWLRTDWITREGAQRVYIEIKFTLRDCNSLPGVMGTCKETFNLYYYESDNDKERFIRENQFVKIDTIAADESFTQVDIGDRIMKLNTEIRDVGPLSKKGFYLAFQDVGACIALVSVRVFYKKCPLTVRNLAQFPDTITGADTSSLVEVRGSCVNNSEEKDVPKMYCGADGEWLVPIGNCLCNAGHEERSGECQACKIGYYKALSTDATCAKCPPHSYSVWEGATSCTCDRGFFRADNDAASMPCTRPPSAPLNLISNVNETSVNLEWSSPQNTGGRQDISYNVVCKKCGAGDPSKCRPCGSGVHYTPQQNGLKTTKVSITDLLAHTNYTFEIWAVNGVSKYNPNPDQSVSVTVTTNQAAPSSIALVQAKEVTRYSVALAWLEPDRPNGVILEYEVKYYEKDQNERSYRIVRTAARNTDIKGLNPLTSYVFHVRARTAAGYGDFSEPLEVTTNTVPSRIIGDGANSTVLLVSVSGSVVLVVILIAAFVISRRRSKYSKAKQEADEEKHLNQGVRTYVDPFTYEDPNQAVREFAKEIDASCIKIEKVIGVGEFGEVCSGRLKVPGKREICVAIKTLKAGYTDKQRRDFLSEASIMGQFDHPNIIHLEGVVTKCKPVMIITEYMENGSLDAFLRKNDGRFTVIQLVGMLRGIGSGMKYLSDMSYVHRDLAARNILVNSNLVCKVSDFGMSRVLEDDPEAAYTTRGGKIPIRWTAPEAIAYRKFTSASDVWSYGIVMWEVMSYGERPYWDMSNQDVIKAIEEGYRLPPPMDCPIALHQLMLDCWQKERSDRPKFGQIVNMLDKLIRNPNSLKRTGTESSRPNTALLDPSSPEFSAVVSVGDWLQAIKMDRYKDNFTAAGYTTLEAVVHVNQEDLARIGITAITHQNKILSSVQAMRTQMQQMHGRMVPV

Ephrin type-A receptor 3 = target: T1, Ephrin type-A receptor 3 (Homo sapiens, UniProt P29320)
T1 sequence (P29320 whole entry): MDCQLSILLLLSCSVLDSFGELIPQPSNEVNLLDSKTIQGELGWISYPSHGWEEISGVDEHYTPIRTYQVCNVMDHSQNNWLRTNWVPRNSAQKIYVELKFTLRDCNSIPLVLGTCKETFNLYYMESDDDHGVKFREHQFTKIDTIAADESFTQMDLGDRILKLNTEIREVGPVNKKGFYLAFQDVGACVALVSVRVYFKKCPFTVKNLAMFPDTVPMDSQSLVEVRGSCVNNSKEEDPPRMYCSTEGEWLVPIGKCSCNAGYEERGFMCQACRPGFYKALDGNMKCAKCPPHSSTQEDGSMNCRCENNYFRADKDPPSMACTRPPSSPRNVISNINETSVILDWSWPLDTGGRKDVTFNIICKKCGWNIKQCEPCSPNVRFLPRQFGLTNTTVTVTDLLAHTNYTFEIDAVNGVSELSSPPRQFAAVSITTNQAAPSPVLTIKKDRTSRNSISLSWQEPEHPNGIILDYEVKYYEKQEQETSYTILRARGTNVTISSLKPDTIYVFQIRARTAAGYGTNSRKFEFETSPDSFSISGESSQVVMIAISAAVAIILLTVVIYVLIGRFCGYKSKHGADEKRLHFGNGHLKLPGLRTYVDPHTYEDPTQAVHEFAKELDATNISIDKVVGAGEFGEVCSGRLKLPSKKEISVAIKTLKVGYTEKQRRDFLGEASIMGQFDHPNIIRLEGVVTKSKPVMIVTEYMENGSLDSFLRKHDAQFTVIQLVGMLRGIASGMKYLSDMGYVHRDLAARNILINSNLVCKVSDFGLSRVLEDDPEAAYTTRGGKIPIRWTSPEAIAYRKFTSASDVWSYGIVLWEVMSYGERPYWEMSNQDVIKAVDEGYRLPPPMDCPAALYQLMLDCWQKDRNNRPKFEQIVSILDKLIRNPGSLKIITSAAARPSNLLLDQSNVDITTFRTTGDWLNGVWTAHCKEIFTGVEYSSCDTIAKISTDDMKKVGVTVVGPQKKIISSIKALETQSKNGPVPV

[4] = target: Fibroblast growth factor receptor 3 (Homo sapiens, UniProt P22607)
Fibroblast growth factor receptor 3, sequence (P22607 whole entry): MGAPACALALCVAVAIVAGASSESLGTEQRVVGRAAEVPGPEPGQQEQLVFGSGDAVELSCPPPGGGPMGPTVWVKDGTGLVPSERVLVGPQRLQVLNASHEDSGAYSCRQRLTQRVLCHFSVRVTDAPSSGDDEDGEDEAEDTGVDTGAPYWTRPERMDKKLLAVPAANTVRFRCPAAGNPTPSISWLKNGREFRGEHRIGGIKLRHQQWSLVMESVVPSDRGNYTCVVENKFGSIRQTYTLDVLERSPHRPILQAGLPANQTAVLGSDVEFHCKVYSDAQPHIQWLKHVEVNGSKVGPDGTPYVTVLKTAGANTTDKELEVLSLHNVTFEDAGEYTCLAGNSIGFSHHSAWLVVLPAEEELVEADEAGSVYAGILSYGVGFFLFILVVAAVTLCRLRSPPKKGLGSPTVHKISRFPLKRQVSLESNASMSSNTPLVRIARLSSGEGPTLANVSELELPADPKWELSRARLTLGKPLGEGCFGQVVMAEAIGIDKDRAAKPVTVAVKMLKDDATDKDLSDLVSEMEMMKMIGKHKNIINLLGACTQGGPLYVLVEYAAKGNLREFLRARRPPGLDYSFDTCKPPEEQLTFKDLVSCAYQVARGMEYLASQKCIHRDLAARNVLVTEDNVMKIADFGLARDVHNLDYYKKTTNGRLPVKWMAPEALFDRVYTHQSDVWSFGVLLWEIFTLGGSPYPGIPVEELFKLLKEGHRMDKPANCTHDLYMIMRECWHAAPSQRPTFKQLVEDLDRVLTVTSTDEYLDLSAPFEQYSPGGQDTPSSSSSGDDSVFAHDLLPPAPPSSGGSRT

[5] = target: Tyrosine-protein kinase Lyn (Homo sapiens, UniProt P07948)
[6] = target: Tyrosine-protein kinase HCK (Homo sapiens, UniProt P08631)
[7] = target: Tyrosine-protein kinase JAK2 (Homo sapiens, UniProt O60674)
[8] = target: Ribosomal protein S6 kinase alpha-5 (Homo sapiens, UniProt O75582)
Ribosomal protein S6 kinase alpha-5, sequence (O75582 whole entry, canonical isoform): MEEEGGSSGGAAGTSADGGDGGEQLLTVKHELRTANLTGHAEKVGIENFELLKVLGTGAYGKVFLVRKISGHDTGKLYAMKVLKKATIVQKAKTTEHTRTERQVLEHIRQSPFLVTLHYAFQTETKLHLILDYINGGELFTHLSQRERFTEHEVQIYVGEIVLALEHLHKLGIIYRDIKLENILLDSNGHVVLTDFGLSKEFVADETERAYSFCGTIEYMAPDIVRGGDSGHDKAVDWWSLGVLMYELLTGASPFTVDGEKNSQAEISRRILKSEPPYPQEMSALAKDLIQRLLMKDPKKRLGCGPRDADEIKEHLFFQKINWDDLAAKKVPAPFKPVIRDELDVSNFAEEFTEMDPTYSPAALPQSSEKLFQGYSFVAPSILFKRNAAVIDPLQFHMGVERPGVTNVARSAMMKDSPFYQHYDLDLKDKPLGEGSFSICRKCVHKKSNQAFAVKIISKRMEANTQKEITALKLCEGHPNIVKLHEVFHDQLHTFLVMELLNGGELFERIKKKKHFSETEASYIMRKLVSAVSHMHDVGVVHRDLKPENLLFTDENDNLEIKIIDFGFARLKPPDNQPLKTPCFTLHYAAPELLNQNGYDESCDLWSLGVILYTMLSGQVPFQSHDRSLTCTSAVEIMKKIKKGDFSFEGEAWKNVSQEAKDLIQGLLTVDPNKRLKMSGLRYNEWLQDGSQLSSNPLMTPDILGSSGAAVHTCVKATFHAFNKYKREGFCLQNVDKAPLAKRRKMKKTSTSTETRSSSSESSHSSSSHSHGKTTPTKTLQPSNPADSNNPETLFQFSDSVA

[9] = target: Casein kinase I isoform gamma-1 (Homo sapiens, UniProt Q9HCP0)
Casein kinase I isoform gamma-1, sequence (Q9HCP0 whole entry, canonical isoform): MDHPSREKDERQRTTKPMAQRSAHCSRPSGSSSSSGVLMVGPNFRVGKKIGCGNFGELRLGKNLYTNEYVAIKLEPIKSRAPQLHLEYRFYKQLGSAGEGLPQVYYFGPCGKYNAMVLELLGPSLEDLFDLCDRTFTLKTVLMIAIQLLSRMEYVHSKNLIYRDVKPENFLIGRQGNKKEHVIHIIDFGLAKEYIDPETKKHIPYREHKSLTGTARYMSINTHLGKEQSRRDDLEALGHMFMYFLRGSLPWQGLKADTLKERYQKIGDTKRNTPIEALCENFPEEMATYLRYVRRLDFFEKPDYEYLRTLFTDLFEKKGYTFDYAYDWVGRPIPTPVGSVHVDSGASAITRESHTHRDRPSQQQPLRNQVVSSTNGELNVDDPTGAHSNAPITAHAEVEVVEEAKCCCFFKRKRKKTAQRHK

[10] = target: Mitogen-activated protein kinase 11 (Homo sapiens, UniProt Q15759)
Mitogen-activated protein kinase 11, sequence (Q15759 whole entry): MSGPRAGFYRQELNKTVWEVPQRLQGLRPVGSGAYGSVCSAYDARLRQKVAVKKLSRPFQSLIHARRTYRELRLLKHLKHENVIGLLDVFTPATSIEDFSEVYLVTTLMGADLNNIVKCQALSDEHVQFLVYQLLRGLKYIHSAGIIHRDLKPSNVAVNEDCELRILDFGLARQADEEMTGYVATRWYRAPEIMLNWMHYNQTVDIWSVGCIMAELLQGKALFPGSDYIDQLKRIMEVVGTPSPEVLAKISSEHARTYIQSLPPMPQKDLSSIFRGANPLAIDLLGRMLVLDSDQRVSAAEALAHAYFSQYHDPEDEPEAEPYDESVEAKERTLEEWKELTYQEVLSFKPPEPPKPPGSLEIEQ

[11] = target: Calcium/calmodulin-dependent protein kinase type II subunit gamma (Homo sapiens, UniProt Q13555)
Calcium/calmodulin-dependent protein kinase type II subunit gamma, sequence (Q13555 whole entry): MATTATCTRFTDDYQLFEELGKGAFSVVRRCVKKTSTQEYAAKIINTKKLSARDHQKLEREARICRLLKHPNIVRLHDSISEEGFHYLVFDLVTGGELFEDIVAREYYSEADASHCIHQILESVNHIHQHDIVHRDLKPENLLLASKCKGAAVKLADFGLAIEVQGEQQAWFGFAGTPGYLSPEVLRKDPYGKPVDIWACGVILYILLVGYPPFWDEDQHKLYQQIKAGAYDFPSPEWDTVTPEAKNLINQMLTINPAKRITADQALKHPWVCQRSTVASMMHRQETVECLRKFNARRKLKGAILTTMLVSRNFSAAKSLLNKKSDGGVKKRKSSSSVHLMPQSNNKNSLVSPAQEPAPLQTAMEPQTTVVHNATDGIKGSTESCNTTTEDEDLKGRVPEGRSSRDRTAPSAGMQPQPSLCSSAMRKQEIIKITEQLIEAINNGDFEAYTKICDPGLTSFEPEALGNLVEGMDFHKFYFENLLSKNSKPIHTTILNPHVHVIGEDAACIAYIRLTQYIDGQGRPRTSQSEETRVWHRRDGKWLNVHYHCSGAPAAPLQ

Ephrin type-A receptor 6 = target: T2, Ephrin type-A receptor 6 (Homo sapiens, UniProt Q9UF33)
T2 sequence (Q9UF33 whole entry): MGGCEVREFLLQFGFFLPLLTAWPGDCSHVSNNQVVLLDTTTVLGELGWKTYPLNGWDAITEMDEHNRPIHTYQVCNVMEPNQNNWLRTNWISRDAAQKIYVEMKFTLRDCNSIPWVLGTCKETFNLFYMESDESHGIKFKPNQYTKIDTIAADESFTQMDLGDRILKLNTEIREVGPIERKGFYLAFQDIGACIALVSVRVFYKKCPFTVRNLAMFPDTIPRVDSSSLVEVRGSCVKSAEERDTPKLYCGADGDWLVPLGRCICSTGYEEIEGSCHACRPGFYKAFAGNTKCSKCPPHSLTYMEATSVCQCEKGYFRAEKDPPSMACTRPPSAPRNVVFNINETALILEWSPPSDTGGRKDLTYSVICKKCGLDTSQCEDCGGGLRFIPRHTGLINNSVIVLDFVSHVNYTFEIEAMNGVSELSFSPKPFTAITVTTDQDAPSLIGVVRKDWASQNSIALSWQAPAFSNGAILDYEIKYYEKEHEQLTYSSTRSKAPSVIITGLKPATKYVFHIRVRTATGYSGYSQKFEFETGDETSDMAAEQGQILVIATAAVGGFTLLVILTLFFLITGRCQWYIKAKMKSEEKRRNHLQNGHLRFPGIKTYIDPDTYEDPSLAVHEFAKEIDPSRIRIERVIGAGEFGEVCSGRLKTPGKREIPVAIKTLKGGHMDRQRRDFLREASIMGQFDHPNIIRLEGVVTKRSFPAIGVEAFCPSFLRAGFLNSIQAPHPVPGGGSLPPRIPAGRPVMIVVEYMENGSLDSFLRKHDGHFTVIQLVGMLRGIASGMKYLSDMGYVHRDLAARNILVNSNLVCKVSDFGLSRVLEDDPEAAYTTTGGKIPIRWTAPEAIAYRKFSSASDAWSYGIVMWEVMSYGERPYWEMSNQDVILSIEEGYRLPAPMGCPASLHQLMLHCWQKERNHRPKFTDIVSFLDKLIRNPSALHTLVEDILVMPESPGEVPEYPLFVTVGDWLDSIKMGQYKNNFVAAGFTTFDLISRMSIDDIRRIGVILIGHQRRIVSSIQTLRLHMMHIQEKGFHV

Measured: Kd

Calcium/calmodulin-dependent protein kinase kinase 1, sequence (Q8N5S9 whole entry): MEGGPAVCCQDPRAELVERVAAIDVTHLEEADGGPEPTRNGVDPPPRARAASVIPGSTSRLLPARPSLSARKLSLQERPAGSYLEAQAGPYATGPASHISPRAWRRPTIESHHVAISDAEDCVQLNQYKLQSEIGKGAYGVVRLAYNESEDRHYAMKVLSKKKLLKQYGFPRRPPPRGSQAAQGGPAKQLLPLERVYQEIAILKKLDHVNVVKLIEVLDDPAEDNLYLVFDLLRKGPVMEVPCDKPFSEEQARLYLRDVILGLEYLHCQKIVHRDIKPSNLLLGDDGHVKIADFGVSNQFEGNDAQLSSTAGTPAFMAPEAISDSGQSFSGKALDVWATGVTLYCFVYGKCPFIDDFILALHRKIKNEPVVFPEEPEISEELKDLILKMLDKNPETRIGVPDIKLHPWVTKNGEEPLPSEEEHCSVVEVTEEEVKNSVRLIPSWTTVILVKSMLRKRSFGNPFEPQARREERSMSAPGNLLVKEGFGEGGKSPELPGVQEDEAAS
Tyrosine-protein kinase Yes, sequence (P07947 whole entry): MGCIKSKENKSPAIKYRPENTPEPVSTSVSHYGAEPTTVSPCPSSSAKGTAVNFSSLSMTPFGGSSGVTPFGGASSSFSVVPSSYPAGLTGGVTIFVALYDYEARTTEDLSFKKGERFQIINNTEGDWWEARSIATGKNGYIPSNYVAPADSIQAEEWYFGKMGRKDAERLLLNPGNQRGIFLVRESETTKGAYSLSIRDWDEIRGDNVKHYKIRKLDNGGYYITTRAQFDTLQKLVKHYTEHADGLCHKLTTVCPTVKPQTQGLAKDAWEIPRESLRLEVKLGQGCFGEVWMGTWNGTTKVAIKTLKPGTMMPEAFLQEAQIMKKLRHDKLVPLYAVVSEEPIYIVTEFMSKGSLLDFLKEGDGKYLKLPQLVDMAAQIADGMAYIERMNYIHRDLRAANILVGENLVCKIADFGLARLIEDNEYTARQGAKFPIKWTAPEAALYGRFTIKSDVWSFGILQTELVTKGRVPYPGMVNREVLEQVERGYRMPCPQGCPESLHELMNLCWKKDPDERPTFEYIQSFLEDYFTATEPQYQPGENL

C#Cc1cccc(Nc2ncnc3cc(OCCOC)c(OCCOC)cc23)c1 [ERLOTINIB]
Not Active: [1] | [2] | [3] | Ephrin type-A receptor 7 | Ephrin type-A receptor 4 | Ephrin type-A receptor 3 | [4] | [5] | [6] | [7] | [8] | [9] | [10] | [11]

Cc1ccc(NC(=O)c2ccc(CN3CCN(C)CC3)cc2)cc1Nc1nccc(-c2cccnc2)n1 [IMATINIB]
Not Active: Ephrin type-A receptor 6 | [1] | [2] | [3] | Ephrin type-A receptor 7 | Ephrin type-A receptor 4 | Ephrin type-A receptor 3 | [4] | [5] | [6] | [7] | [8] | [9] | [10] | [11]

O=c1ncn2nc(Sc3ccc(F)cc3F)ccc2c1-c1c(Cl)cccc1Cl [NEFLAMAPIMOD]
Not Active: Ephrin type-A receptor 6 | [3] | Ephrin type-A receptor 7 | Ephrin type-A receptor 3 | [4] | [5] | [7] | [8] | [9] | [11]

CCOc1cc2ncc(C#N)c(Nc3ccc(F)c(Cl)c3)c2cc1NC(=O)/C=C/CN(C)C [PELITINIB]
Not Active: [2] | [3] | Ephrin type-A receptor 7 | Ephrin type-A receptor 4 | [4] | [8] | [9] | [10] | [11]

Oc1ccc(-c2nc(-c3ccc(F)cc3)c(-c3ccncc3)[nH]2)cc1 [SB-202190]
Not Active: Ephrin type-A receptor 6 | [1] | [2] | [3] | Ephrin type-A receptor 7 | Ephrin type-A receptor 4 | Ephrin type-A receptor 3 | [4] | [5] | [6] | [7] | [8] | [9] | [11]

C[S+]([O-])c1ccc(-c2nc(-c3ccc(F)cc3)c(-c3ccncc3)[nH]2)cc1 (configuration not stated) [SB-203580]
Not Active: Ephrin type-A receptor 6 | [1] | [2] | [3] | Ephrin type-A receptor 7 | Ephrin type-A receptor 4 | Ephrin type-A receptor 3 | [4] | [5] | [6] | [7] | [8] | [9] | [11]

CC[C@H](CO)Nc1nc(NCc2ccccc2)c2ncn(C(C)C)c2n1 [SELICICLIB]
Not Active: Ephrin type-A receptor 6 | [1] | [2] | [3] | Ephrin type-A receptor 7 | Ephrin type-A receptor 4 | Ephrin type-A receptor 3 | [4] | [5] | [6] | [7] | [8] | [10] | [11]

Oc1c2ccccc2c2c3c(cccc13)N=N2 [SP-600125]
Not Active: Ephrin type-A receptor 6 | [1] | [2] | [3] | Ephrin type-A receptor 7 | Ephrin type-A receptor 4 | [4] | [5] | [6] | [7] | [10] | [11]

COc1cc2c(N3CCN(C(=O)Nc4ccc(OC(C)C)cc4)CC3)ncnc2cc1OCCCN1CCCCC1 [TANDUTINIB]
Not Active: Ephrin type-A receptor 6 | [1] | [2] | [3] | Ephrin type-A receptor 7 | Ephrin type-A receptor 4 | Ephrin type-A receptor 3 | [4] | [5] | [6] | [7] | [8] | [9] | [10] | [11]
